Laboratory results as given in patent US20060257843A1 (priority 2002, published 2006).
“And” between values parts separate entries of the source, which are not always exact repeats. Equal values may be shown once. “Also recorded” adds a separate entry of the source. Bridge positions count the residues as written; N and C are the ends. Square brackets hold non-standard residues; d marks the D form. Peptide text beside a SMILES is read from it. Hyp = O=C(O)[C@@H]1C[C@@H](O)CN1

Legend:
[1] = test system: primary cultures of cortical neurons; format: cell-based, rat
[2] = test system: primary cultures of cortex; format: cell-based, rat
[3] = test system: cortical cells
[4] = target: Kv1.4 (Homo sapiens, UniProt P22459); details: cited from earlier work
Sequence of Kv1.4 (P22459 whole entry): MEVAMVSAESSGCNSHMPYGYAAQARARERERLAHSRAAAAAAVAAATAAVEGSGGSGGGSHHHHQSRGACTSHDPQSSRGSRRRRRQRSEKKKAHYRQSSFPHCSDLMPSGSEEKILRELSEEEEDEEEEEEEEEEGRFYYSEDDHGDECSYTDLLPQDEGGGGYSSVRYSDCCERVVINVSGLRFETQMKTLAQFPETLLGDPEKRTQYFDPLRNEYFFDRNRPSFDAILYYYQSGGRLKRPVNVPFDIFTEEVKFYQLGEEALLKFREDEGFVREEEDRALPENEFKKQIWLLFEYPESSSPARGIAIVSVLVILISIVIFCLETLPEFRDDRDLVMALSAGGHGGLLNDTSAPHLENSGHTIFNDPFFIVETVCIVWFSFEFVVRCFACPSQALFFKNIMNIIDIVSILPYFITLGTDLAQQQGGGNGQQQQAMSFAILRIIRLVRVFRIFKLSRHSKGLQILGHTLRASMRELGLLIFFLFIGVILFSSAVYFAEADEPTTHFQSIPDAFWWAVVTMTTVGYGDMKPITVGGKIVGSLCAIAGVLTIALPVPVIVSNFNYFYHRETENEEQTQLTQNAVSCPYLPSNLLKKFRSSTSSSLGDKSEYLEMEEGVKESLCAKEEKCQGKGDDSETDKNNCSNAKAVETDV

[5] = test system: ventricular myocytes, cortex and trachea; format: cell-based, rat
[6] = test system: primary cultures of cortex; format: cell-based, rat; remark: listed apart in the source
[7] = test system: primary cultures of cortex; format: cell-based, rat; remark: listed apart in the source
[8] = target: F425G Shaker mutation (Drosophila melanogaster, UniProt P08510, F425G); details: cited from earlier work
Sequence of F425G Shaker mutation (P08510 whole entry F425G): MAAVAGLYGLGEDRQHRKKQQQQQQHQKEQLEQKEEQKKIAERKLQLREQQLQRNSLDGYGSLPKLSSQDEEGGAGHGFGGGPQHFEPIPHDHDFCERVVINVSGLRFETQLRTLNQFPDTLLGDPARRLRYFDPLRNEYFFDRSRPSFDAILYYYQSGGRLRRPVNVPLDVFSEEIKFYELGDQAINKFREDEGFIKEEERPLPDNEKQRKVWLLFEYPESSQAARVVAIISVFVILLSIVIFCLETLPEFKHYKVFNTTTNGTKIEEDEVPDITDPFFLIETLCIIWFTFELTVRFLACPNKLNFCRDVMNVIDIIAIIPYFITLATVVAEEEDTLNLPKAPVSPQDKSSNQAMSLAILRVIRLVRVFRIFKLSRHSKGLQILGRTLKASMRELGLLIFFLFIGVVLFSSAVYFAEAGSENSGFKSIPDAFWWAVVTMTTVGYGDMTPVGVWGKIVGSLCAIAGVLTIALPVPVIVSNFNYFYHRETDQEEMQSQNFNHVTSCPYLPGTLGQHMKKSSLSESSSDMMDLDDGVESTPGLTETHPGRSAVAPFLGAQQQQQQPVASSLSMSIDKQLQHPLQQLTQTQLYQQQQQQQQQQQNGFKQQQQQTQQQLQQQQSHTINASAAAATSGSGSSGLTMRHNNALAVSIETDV

[9] = test system: New Zealand White rabbits; details: rabbit, in vivo
[10] = test system: cardiac myocytes; format: cell-based, rat
[11] = test system: isolated rabbit hearts
[12] = test system: cardiac ventricular myocytes; format: cell-based, rat
[13] = test system: canine model of AMI; details: dog, in vivo
[14] = test system: primary cultures of cortex
[15] = test system: primary cultures of ventricular myocytes
[16] = test system: primary cortical cultures
[17] = test system: anesthetized rat; details: in vivo, iv
[18] = target: Shaker H4 potassium channel (Drosophila melanogaster, UniProt P08510); details: cited from earlier work
Sequence of Shaker H4 potassium channel (P08510 whole entry): as the sequence (P08510 whole entry F425G) above, with G425F counted along it

[19] = target: T1, Kv1.3 (Homo sapiens, UniProt P22001); details: cited from earlier work
T1 construct: host or cells: oocytes
T1 sequence (P22001 whole entry): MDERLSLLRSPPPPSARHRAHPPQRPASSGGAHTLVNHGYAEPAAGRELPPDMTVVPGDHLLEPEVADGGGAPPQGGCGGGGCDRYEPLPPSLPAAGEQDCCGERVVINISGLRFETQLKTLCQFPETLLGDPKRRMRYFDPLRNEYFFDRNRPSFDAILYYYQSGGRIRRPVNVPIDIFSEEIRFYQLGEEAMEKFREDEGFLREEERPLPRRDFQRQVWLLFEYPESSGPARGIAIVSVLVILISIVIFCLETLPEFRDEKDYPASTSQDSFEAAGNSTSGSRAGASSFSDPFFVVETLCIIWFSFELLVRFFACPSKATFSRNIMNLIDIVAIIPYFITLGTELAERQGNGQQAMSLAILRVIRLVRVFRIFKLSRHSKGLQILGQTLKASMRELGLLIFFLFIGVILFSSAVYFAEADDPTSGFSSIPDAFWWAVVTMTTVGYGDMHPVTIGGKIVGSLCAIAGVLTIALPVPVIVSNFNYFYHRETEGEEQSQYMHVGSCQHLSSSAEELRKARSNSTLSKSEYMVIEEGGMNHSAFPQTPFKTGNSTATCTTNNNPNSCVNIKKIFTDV

[20] = target: T2, Kv1.1 (Homo sapiens, UniProt Q09470); details: cited from earlier work
T2 construct: host or cells: oocytes
T2 sequence (Q09470 whole entry): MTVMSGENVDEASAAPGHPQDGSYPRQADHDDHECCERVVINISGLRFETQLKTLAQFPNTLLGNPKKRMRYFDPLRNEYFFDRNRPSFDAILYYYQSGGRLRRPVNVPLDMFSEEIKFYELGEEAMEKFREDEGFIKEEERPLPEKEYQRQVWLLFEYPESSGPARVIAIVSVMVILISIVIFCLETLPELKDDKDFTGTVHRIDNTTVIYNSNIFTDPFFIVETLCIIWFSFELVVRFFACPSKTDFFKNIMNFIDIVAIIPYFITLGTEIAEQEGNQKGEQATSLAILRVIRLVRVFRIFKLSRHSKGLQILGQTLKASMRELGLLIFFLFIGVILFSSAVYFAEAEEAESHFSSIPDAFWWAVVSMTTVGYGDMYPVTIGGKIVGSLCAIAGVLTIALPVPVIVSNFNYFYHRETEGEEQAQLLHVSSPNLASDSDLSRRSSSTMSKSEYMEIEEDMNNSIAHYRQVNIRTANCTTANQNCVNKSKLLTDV

In the case of `CC[C@H](C)[C@@H]1NC(=O)[C@H](CCCNC(=N)N)NC(=O)[C@@H](N)CSSC[C@@H]2NC(=O)[C@@H]3CSSC[C@@H](C(=O)N[C@H](C(=O)O)C(C)C)NC(=O)[C@H](CCCCN)NC(=O)[C@H](CC(N)=O)NC(=O)[C@H](Cc4ccccc4)NC(=O)[C@H](CCCNC(=N)N)NC(=O)[C@H](CC(N)=O)NC(=O)[C@H](CSSC[C@H](NC(=O)[C@H](CCCCN)NC(=O)[C@H](CCC(N)=O)NC(=O)[C@H](CC(N)=O)NC(=O)[C@@H]4C[C@@H](O)CN4C1=O)C(=O)N[C@@H](Cc1ccccc1)C(=O)N[C@@H](CCC(N)=O)C(=O)N[C@@H](Cc1c[nH]cn1)C(=O)N[C@@H](CC(C)C)C(=O)N[C@@H](CC(=O)O)C(=O)N[C@@H](CC(=O)O)C(=O)N3)NC(=O)[C@H](CCCCN)NC(=O)[C@H](CCCNC(=N)N)NC(=O)[C@H](CO)NC2=O` [κ-PVIIA, Cys-Xaa1-Ile-Xaa2-Asn-Gln-Xaa3-Cys-Xaa4-Gln-Xaa5-Leu-Asp-Asp-Cys-Cys-Ser-Xaa1-Xaa3-Cys-Asn-Xaa1-Xaa4-Asn-Xaa3-Cys-Val] (H-CRI[Hyp]NQKCFQHLDDCCSRKCNRFNKCV-OH; disulfide 1-16, 8-20, 15-26), the “change in intracellular calcium (Fluo-3 fluorescence)” value [1] is reported as −2.15±0.95% and −8.8±3.9%, the initial glutamate-induced depolarization [2] is reported as “prevents the initial glutamate-induced depolarization” and the “degree of glutamate-induced excitotoxicity (delayed cellular death)” value [3] is reported as “effectively reduces the degree of glutamate-induced excitotoxicity in a dose-dependant manner”. The “protection against delayed cytotoxic effects of glutamate” value [3] was “very effective protection”, the “activity on Kv1.4” value [4] was “no detectable activity” and the “protection against hypoxia-induced changes in intracellular calcium” value [5] was “able to provide protection against hypoxia”. The “intracellular K+ concentration (PBFI fluorescence)” value [6] was “reduction”, the “current corrected for cell capacitance” value [7] was 2.4±0.7 pA/pf and the “current evoked by κ-PVIIA” value [7] was 26.2±6.2 pA. For the same compound, the “reversal of κ-PVIIA-induced inward current” value [7] was ~−20 mV, the “sensitivity of evoked currents to KATP antagonists” value [7] was “sensitive” and the “effect of F425G Shaker mutation on κ-PVIIA sensitivity” value [8] was “abolishes”. For the same compound, the hemodynamic effect [9] was “without any hemodynamic effect”, the lowest effective dose [9] was 0.01 mg/kg and the “infarct size as % of risk zone, protection” value ([9]; iv) was “equally as protective”. For the same compound, the “current corrected for cell capacitance” value [10] was 4.6±0.4 pA/pf, the “current evoked by κ-PVIIA” value [10] was 87.7±5.9 pA and the “experimentally determined Ek (reversal potential of evoked current)” value [10] was −23 mV. The “reversal of κ-PVIIA-induced inward current” value [10] was ~−20 mV, the “sensitivity of evoked currents to KATP antagonists” value [10] was “sensitive” and the “effect on infarct size” value [11] was “reduced the infarct size; also recorded: no effect”. For the same compound, the “protection against hypoxia-induced depolarization” value [12] was “prevented any hypoxia-induced changes in membrane potential; also recorded: protective effect”, the “protective effect against hypoxia induced depolarization (initial screen, Example 10)” value [12] was “strong protective effect” and the “drop in blood pressure normally seen upon reperfusion” value [13] was “prevented the drop in blood pressure”. For the same compound, the lowest effective dose [13] was 0.1 mg/kg, the “effect on infarct size” value ([13]; iv) was “No significant effect” and the “reduction of infarct size” value ([13]; iv) was “approximately 60%”. For the same compound, the EC50 [14] was 0.0008 pM, the EC50 [15] was 0.0009 pM and the “protease activity (cytotoxicity)” value [16] was “no detectable protease activity”. For the same compound, the “effect on blood pressure” value [17] was “no effect”, the “effect on heart rate” value [17] was “no effect” and the “block of the Drosophila H4 shaker K+ channel” value [18] was “block”. The “effects on Kv1.3” value [19] was “no effects” and the “activity on Kv1.1” value [20] was “no effects; also recorded: no detectable activity”.
